Assay results as given in patent publication US12570671B2 (BRISTOL-MYERS SQUIBB COMPANY, priority 2020, dated 2026).

Assays:
[1] = biological target: Ikaros (Homo sapiens, UniProt Q13422+Q96SW2); assay: Helios Cellular Degradation Assay (Ikaros readout); format: cell-based; parameters: endogenous in cells; host or cells: Jurkat; conditions: Jurkat cells, 72 h incubation, Ikaros-Alexa488 antibody staining, flow cytometry; read-out: Ikaros Jurkat IC50
In short: (§1)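 Jurkat cells (80,000/well, RPMI+10% FBS) were treated with compound for 72 h at 37° C. After fixation and permeabilization they were stained with fluorescent antibodies to Helios, Ikaros and Aiolos. Intracellular protein levels were quantified by flow cytometry.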

[2] = biological target: Helios (Homo sapiens, UniProt Q96SW2+Q9UKS7); assay: Helios Cellular Degradation Assay (Helios readout); format: cell-based; parameters: endogenous in cells; host or cells: Jurkat; conditions: Jurkat cells, 72 h incubation, Helios-PE antibody staining, flow cytometry; read-out: Helios Jurkat IC50
In short: as §1

Ikaros, sequence (Q13422 whole entry): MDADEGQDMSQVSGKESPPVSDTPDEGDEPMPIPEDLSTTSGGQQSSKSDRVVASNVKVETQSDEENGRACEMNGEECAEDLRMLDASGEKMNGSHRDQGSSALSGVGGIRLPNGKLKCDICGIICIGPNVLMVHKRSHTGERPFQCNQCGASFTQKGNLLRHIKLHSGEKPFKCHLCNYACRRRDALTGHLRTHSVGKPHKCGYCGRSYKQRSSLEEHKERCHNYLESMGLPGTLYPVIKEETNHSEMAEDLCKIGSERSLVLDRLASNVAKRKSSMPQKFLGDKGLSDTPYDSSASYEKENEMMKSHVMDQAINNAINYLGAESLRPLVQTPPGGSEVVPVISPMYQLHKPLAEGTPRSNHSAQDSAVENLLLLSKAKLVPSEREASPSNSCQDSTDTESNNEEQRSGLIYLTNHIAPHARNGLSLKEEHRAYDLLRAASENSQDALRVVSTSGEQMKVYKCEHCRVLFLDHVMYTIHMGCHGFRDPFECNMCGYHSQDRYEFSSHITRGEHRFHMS
Ikaros, sequence (Q96SW2 whole entry): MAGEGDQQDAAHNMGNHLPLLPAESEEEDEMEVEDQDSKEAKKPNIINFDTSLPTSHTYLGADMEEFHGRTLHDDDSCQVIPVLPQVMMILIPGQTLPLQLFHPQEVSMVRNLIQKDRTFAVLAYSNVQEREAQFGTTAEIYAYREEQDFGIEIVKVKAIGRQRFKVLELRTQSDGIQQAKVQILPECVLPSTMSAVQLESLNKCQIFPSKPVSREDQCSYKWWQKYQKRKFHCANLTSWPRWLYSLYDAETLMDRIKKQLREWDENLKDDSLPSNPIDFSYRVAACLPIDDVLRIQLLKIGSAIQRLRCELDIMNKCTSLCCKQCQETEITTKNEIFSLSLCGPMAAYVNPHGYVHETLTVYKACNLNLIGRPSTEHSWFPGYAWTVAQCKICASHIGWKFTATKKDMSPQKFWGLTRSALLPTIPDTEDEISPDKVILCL
Ikaros, sequence (Q16531 whole entry partner): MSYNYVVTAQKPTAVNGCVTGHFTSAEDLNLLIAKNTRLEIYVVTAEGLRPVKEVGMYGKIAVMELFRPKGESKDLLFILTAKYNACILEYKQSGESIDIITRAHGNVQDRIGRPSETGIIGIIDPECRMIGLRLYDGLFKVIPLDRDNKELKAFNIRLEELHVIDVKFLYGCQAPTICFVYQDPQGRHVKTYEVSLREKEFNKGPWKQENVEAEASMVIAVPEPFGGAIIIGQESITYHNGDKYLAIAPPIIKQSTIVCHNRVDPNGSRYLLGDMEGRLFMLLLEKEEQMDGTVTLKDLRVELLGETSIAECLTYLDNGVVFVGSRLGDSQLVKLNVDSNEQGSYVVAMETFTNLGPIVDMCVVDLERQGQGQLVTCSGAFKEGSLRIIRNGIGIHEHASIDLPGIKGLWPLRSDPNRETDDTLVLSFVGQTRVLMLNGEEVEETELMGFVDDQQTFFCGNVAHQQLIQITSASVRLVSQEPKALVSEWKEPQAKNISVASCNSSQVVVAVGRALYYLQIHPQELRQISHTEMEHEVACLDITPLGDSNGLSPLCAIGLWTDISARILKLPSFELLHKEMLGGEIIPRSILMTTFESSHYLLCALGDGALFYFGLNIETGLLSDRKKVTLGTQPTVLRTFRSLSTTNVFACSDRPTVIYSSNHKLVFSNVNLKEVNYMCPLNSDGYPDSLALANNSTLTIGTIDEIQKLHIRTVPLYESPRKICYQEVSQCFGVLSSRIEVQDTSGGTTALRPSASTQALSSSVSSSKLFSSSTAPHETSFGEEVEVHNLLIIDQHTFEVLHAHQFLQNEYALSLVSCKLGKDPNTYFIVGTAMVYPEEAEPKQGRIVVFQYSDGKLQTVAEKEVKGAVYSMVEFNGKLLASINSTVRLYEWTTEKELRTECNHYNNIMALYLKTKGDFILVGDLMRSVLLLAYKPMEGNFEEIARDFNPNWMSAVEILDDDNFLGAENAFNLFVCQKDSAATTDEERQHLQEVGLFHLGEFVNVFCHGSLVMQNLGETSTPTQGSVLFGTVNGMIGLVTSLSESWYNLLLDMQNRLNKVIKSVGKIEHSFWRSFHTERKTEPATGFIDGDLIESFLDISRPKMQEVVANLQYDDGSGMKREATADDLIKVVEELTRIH
Helios, sequence (Q9UKS7 whole entry): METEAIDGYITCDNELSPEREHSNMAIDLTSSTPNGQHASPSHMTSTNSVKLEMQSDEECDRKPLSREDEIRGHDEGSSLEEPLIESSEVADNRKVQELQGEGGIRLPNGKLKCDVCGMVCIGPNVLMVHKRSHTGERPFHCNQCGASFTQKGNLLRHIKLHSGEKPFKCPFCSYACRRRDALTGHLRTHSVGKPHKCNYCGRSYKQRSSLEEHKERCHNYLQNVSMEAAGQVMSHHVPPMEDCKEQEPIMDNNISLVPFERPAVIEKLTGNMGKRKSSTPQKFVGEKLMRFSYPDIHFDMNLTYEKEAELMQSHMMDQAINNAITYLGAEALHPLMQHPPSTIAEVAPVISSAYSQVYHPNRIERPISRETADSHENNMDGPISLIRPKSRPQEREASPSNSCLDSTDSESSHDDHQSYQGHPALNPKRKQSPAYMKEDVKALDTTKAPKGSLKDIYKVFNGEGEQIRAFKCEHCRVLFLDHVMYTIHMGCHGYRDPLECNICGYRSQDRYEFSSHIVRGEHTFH
Helios, sequence (Q96SW2 whole entry): as the sequence (Q96SW2 whole entry) above
Helios, sequence (Q16531 whole entry partner): as the sequence (Q16531 whole entry partner) above

## Nc1cc(CO)cc(-c2ccc3c(c2)CN(C2CCC(=O)NC2=O)C3=O)n1 (centres unmarked) [Example 112, 3-(5-(6-amino-4-(hydroxymethyl)pyridin-2-yl)-1-oxoisoindolin-2-yl)piperidine-2,6-dione]
[1]
  DC50: ≥ 10000 nM
[2]
  DC50: 420 nM

## O=C1CCC(N2Cc3cc(-c4cc5c(cn4)NCC5)ccc3C2=O)C(=O)N1 (centres unmarked) [Example 113, 3-(5-(2,3-dihydro-1H-pyrrolo[2,3-c]pyridin-5-yl)-1-oxoisoindolin-2-yl)piperidine-2,6-dione]
[1]
  DC50: ≥ 10000 nM
[2]
  DC50: 50 nM

## O=C1CCC(N2Cc3cc(-c4ccc5c(n4)NC(=O)C5)ccc3C2=O)C(=O)N1 (centres unmarked) [Example 114, 3-(1-oxo-5-(2-oxo-2,3-dihydro-1H-pyrrolo[2,3-b]pyridin-6-yl)isoindolin-2-yl)piperidine-2,6-dione]
[1]
  DC50: ≥ 10000 nM
[2]
  DC50: 1120 nM

## O=C1CCC(N2Cc3cc(-c4cc5c(cn4)CCCC5)ccc3C2=O)C(=O)N1 (centres unmarked) [Example 115, 3-(1-oxo-5-(5,6,7,8-tetrahydroisoquinolin-3-yl)isoindolin-2-yl)piperidine-2,6-dione]
[1]
  DC50: 160 nM
[2]
  DC50: 100 nM

## Cc1ccc(-c2ccc3c(c2)CN(C2CCC(=O)NC2=O)C3=O)nc1N (centres unmarked) [Example 116, 3-(5-(6-amino-5-methylpyridin-2-yl)-1-oxoisoindolin-2-yl)piperidine-2,6-dione]
[1]
  DC50: ≥ 10000 nM
[2]
  DC50: 170 nM

## Nc1ccc(-c2ccc3c(c2)CN(C2CCC(=O)NC2=O)C3=O)nc1N (centres unmarked) [Example 117, 3-(5-(5,6-diaminopyridin-2-yl)-1-oxoisoindolin-2-yl)piperidine-2,6-dione]
[1]
  DC50: ≥ 10000 nM
[2]
  DC50: 150 nM

## O=C1CCC(N2Cc3cc(-c4ccc5c(n4)NCCN5)ccc3C2=O)C(=O)N1 (centres unmarked) [Example 118, 3-(1-oxo-5-(1,2,3,4-tetrahydropyrido[2,3-b]pyrazin-6-yl)isoindolin-2-yl)piperidine-2,6-dione]
[1]
  DC50: ≥ 10000 nM
[2]
  DC50: 180 nM

## Cc1cc(-c2ccc3c(c2)CN(C2CCC(=O)NC2=O)C3=O)nc(C)c1N (centres unmarked) [Example 119, 3-(5-(5-amino-4,6-dimethylpyridin-2-yl)-1-oxoisoindolin-2-yl)piperidine-2,6-dione]
[1]
  DC50: ≥ 10000 nM
[2]
  DC50: 240 nM

## Nc1cc(C(F)(F)F)cc(-c2ccc3c(c2)CN(C2CCC(=O)NC2=O)C3=O)n1 (centres unmarked) [Example 120, 3-(5-(6-amino-4-(trifluoromethyl)pyridin-2-yl)-1-oxoisoindolin-2-yl)piperidine-2,6-dione]
[1]
  DC50: ≥ 10000 nM
[2]
  DC50: 70 nM

## Cc1cnc(-c2ccc3c(c2)CN(C2CCC(=O)NC2=O)C3=O)cc1C (centres unmarked) [Example 121, 3-(5-(4,5-dimethylpyridin-2-yl)-1-oxoisoindolin-2-yl)piperidine-2,6-dione]
[1]
  DC50: 1280 nM
[2]
  DC50: 40 nM

## O=C1CC[C@H](N2Cc3cc(-c4ccc5cccnc5n4)ccc3C2=O)C(=O)N1 [Example 122, (3S)-3-[5-(1,8-naphthyridin-2-yl)-1-oxo-2,3-dihydro-1H-isoindol-2-yl]piperidine-2,6-dione]
[1]
  DC50: ≥ 20000 nM
[2]
  DC50: 50 nM

## Nc1cc2ccccc2c(-c2ccc3c(c2)CN([C@H]2CCC(=O)NC2=O)C3=O)n1 [Example 123, (S)-3-(5-(3-aminoisoquinolin-1-yl)-1-oxoisoindolin-2-yl)piperidine-2,6-dione]
[1]
  DC50: ≥ 20000 nM
[2]
  DC50: 80 nM

## CC(=O)Nc1cc2ccccc2c(-c2ccc3c(c2)CN([C@H]2CCC(=O)NC2=O)C3=O)n1 [Example 124, (S)—N-(1-(2-(2,6-dioxopiperidin-3-yl)-1-oxoisoindolin-5-yl)isoquinolin-3-yl)acetamide]
[1]
  DC50: ≥ 20000 nM
[2]
  DC50: 80 nM

## N#Cc1nc(-c2ccc3c(c2)CN([C@H]2CCC(=O)NC2=O)C3=O)cc2ccccc12 [Example 125, 3-{2-[(3 S)-2,6-dioxopiperidin-3-yl]-1-oxo-2,3-dihydro-1H-isoindol-5-yl}isoquinoline-1-carbonitrile]
[1]
  DC50: ≥ 20000 nM
[2]
  DC50: 40 nM

## NC(=O)c1nc(-c2ccc3c(c2)CN([C@H]2CCC(=O)NC2=O)C3=O)cc2ccccc12 [Example 126, 3-{2-[(3S)-2,6-dioxopiperidin-3-yl]-1-oxo-2,3-dihydro-1H-isoindol-5-yl}isoquinoline-1-carboxamide]
[1]
  DC50: ≥ 20000 nM
[2]
  DC50: 2990 nM

## CC(=O)O[C@H]1CCOc2nc(-c3ccc4c(c3)CN([C@H]3CCC(=O)NC3=O)C4=O)ccc21 [Example 127, (4S)-7-{2-[(3S)-2,6-dioxopiperidin-3-yl]-1-oxo-2,3-dihydro-1H-isoindol-5-yl}-2H,3H,4H-pyrano[2,3-b]pyridin-4-yl acetate]
[1]
  DC50: ≥ 20000 nM
[2]
  DC50: 7460 nM

## CC(=O)O[C@@H]1CCOc2nc(-c3ccc4c(c3)CN([C@H]3CCC(=O)NC3=O)C4=O)ccc21 [Example 128, (4R)-7-{2-[(3S)-2,6-dioxopiperidin-3-yl]-1-oxo-2,3-dihydro-1H-isoindol-5-yl}-2H,3H,4H-pyrano[2,3-b]pyridin-4-yl acetate]
[1]
  DC50: ≥ 20000 nM
[2]
  DC50: 2830 nM

## CN(C)c1cnc(-c2ccc3c(c2)CN(C2CCC(=O)NC2=O)C3=O)c2cc(Cl)ccc12 (centres unmarked) [Example 129, 3-{5-[7-chloro-4-(dimethylamino)isoquinolin-1-yl]-1-oxo-2,3-dihydro-1H-isoindol-2-yl}piperidine-2,6-dione]
[1]
  DC50: 90 nM
[2]
  DC50: 10 nM

## CN(C)C(=O)c1c(-c2ccc3c(c2)CN(C2CCC(=O)NC2=O)C3=O)nc(N)c2ccccc12 (centres unmarked) [Example 130, 1-amino-3-[2-(2,6-dioxopiperidin-3-yl)-1-oxo-2,3-dihydro-1H-isoindol-5-yl]-N,N-dimethylisoquinoline-4-carboxamide]
[1]
  DC50: ≥ 20000 nM
[2]
  DC50: 450 nM

## Cc1c(-c2ccc3c(c2)CN(C2CCC(=O)NC2=O)C3=O)nc(N)c2ccccc12 (centres unmarked) [Example 131, 3-[5-(1-amino-4-methylisoquinolin-3-yl)-1-oxo-2,3-dihydro-1H-isoindol-2-yl]piperidine-2,6-dione]
[1]
  DC50: ≥ 20000 nM
[2]
  DC50: 140 nM

## Nc1ccc(C2CC2)c(-c2ccc3c(c2)CN(C2CCC(=O)NC2=O)C3=O)n1 (centres unmarked) [Example 132, 3-[5-(6-amino-3-cyclopropylpyridin-2-yl)-1-oxo-2,3-dihydro-1H-isoindol-2-yl]piperidine-2,6-dione]
[1]
  DC50: ≥ 20000 nM
[2]
  DC50: 20 nM

## Nc1ccc2c(-c3ccc4c(c3)CN(C3CCC(=O)NC3=O)C4=O)nccc2c1 (centres unmarked) [Example 133, 3-[5-(6-aminoisoquinolin-1-yl)-1-oxo-2,3-dihydro-1H-isoindol-2-yl]piperidine-2,6-dione]
[1]
  DC50: ≥ 20000 nM
[2]
  DC50: 10 nM

## CC(=O)Nc1ccc2c(-c3ccc4c(c3)CN(C3CCC(=O)NC3=O)C4=O)nccc2c1 (centres unmarked) [Example 134, N-{1-[2-(2,6-dioxopiperidin-3-yl)-1-oxo-2,3-dihydro-1H-isoindol-5-yl]isoquinolin-6-yl}acetamide]
[1]
  DC50: ≥ 20000 nM
[2]
  DC50: 100 nM

## Nc1cc(CCl)cc(-c2ccc3c(c2)CN(C2CCC(=O)NC2=O)C3=O)n1 (centres unmarked) [Example 135, 3-{5-[6-amino-4-(chloromethyl)pyridin-2-yl]-1-oxo-2,3-dihydro-1H-isoindol-2-yl}piperidine-2,6-dione]
[1]
  DC50: ≥ 10000 nM
[2]
  DC50: 230 nM

## O=C1CCC(N2Cc3cc(-c4ccc5c(n4)NCCCC5)ccc3C2=O)C(=O)N1 (centres unmarked) [Example 136, 3-(1-oxo-5-{5H,6H,7H,8H,9H-pyrido[2,3-b]azepin-2-yl}-2,3-dihydro-1H-isoindol-2-yl) piperidine-2,6-dione]
[1]
  DC50: ≥ 10000 nM
[2]
  DC50: 290 nM
